{"source": "paper PMC4861903", "about": "“Synthesis of a highly water-soluble acacetin prodrug for treating experimental atrial fibrillation in beagle dogs” (Scientific Reports, 2016)", "key": {"[1]": {"target": "T1, hKv1.5 current (IKur, KCN5A) (Homo sapiens, UniProt P22460)", "T1 construct": "expressed in transfected cells", "T1 sequence (P22460 whole entry)": "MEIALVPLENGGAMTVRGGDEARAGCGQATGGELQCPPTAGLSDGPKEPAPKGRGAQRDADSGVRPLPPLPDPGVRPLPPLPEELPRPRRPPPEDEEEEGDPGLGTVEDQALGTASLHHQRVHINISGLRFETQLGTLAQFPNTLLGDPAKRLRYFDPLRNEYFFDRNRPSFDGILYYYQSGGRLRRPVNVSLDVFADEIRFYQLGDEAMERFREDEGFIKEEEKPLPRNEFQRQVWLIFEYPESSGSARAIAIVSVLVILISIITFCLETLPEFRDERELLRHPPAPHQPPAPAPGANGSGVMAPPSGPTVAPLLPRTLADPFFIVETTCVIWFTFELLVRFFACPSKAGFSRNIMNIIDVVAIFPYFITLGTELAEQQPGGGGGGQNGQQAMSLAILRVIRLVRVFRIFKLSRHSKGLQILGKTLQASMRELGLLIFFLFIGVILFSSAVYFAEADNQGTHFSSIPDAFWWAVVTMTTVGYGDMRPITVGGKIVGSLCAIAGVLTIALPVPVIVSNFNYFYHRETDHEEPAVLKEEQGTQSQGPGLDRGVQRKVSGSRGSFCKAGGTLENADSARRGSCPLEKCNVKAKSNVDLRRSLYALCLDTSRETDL", "test": "Whole-cell patch clamp of hKv1.5 current in HEK 293 cells", "assay_type": "cell-based", "conditions": "30 μM, at +50 mV, n = 5", "experimental": "(§1) Whole-cell currents of hKv1.5 and hKv4.3 were recorded in established HEK 293 cell lines stably expressing hKv1.5 (KCN5A) and hKv4.3 (KCND3) and IKACh was determined in isolated rat atrial myocytes as described previously[12][31][32] and in Supplemental Materials. […]\n(§2) Effects of acacetin prodrug on cardiac potassium currents\n(§3) Whole-cell currents of hKv1.5 and hKv4.3 were recorded in established HEK 293 cell lines stably expressing hKv1.5 (KCN5A) and hKv4.3 (KCND3).1, 2 The cells were cultured in Dulbecco’s modified eagle’s medium (DMEM, Invitrogen, Hong Kong) supplemented with 10% fetal bovine serum and 400 µg/mL G418. Cells on a coverslip were transferred to an open cell chamber (0.5 ml) mounted on the stage of an inverted microscope and superfused with Tyrode’s solution at 2 mL/min. The whole cell patch-clamp technique was used as described previously.1, 2 The whole-cell membrane currents were measured using an EPC-10 amplifier and Pulse software (Heka Elektronik, Lambrecht, Germany). Borosilicate glass electrodes (1.2-mm OD) were pulled with a Brown/Flaming puller (model P-97, Sutter Instrument, Nato, CA) and had resistances of 1.5~2.5 MΩ when filled with the pipette solution. A 3-M KCl agar bridge was used as the reference electrode. The tip potential was zeroed before the patch pipette contacted the cell. […]"}, "ICR mice": {"tested_on": "ICR mice", "test": "Acute toxicity assessment in ICR mice, single i.v. dose", "assay_type": "in vivo", "experimental": "(§4) The acute toxicity of acacetin prodrug was assessed in ICR mice (weighing 18~22 g) as described in Supplemental Materials, and the LD50 was calculated by the Bliss method. […]\n(§5) Acute toxicity assessment of acacetin prodrug\n(§6) The acute toxicity of acacetin prodrug was assessed in ICR mice (weighing 18~22 g) provided by the Laboratory Animal Center of Hong Kong University (Hong Kong, China) and maintained under controlled temperature conditions (23 °C), with a constant 12 h light-dark cycle and free access to food and water. Sixty ICR mice (male, 30; female, 30) were stratified by weight and randomly assigned to six groups: (n = 10 in each group, 5 male and 5 female).\n(§7) Acacetin prodrug dissolved in 5% glucose was intravenously administered at 900, 810, 765, 720, 630 and 540 mg/kg through tail vein, respectively. The animals were closely observed for symptoms and mortality in 24 h. All of the surviving animals were euthanized at the end of the study, and their vital organs were individually observed for gross pathology by necropsy, and the LD50 was calculated by the Bliss method.11, 12"}, "[2]": {"test": "Acute toxicity assessment in ICR mice, single i.v. dose", "assay_type": "in vivo", "conditions": "both sexes, ICR, mouse, in vivo, iv, Bliss method", "experimental": "as §4, §5, §6, §7"}, "[3]": {"target": "T2, hKv4.3 current (Ito, KCND3) (Homo sapiens, UniProt Q9UK17)", "T2 construct": "expressed in transfected cells", "T2 sequence (Q9UK17 1-655)": "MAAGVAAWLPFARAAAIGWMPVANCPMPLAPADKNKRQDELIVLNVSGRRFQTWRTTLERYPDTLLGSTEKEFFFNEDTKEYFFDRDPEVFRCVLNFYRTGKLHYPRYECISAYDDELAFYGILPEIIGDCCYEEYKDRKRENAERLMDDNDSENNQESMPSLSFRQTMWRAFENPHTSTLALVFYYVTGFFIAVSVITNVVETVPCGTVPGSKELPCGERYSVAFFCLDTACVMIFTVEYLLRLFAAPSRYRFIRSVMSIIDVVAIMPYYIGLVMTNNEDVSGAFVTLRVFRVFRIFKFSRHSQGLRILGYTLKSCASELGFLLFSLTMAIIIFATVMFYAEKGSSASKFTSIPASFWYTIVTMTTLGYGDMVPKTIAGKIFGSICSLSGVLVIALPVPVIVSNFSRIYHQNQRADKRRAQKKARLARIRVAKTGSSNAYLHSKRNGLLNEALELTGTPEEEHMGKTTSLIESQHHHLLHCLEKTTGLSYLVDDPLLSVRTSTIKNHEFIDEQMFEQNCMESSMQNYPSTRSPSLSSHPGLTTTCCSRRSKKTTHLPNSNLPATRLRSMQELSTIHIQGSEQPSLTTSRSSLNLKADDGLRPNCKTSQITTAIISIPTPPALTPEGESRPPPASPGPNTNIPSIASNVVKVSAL", "test": "Whole-cell patch clamp of hKv4.3 current in HEK 293 cells", "assay_type": "cell-based", "conditions": "30 μM, at +50 mV, n = 5", "experimental": "as §1, §2, §3"}, "hERG channels": {"target": "T3, hERG channels (Homo sapiens, UniProt Q12809)", "T3 construct": "expressed in transfected cells; host or cells: HEK 293", "T3 sequence (Q12809 whole entry)": "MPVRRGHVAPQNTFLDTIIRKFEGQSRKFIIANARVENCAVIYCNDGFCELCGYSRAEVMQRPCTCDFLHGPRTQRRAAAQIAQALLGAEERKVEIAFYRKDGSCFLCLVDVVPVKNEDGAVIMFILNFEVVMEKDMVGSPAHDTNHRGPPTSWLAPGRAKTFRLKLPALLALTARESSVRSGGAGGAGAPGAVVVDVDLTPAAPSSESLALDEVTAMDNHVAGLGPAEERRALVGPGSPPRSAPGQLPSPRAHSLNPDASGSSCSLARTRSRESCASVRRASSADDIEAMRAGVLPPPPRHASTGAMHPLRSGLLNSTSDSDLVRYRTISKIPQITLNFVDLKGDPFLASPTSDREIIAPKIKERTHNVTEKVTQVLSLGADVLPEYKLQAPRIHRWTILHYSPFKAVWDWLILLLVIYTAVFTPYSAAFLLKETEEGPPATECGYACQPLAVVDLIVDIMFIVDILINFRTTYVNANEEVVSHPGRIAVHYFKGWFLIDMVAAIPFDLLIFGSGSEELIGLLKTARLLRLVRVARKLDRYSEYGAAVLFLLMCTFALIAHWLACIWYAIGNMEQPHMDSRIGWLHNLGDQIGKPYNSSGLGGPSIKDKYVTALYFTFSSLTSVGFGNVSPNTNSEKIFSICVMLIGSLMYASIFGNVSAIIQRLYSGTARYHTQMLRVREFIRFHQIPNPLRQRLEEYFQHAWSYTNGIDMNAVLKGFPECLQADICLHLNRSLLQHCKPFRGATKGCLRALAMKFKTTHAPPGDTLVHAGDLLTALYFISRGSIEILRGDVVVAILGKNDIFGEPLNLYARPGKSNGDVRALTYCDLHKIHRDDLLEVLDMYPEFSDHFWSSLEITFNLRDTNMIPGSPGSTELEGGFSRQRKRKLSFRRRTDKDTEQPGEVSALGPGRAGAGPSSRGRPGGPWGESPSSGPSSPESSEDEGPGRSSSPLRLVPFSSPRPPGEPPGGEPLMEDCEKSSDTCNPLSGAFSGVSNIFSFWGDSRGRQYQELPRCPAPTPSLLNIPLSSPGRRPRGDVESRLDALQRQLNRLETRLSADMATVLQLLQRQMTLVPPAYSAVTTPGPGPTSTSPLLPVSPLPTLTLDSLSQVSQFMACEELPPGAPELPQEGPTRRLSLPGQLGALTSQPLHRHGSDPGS", "test": "hERG current in HEK 293 cells", "assay_type": "cell-based", "conditions": "30 μM, n = 4, data not shown"}}, "note": "Read-outs that look alike come from different tables or passages of the source."}
{"smiles": "COc1ccc(-c2cc(=O)c3c(O)cc(OP(=O)([O-])[O-])cc3o2)cc1.[Na+].[Na+]", "note": "[acacetin prodrug, phosphate sodium salt of acacetin]", "values": [{"measurement": "inhibition of hKv1.5 current", "setting": "[1]", "result": "no significant inhibition"}, {"measurement": "mortality", "setting": "ICR mice; i.v. dose of 900 mg/kg", "result": "all animals died"}, {"measurement": "survival within 24 h", "setting": "ICR mice; i.v. dose of up to 540 mg/kg", "result": "All animals survived"}, {"measurement": "adverse effects or signs of toxicity in the surviving animals", "setting": "ICR mice; i.v., 24 h observation", "result": "No significant adverse effects or signs of toxicity"}, {"measurement": "necropsy of the surviving mice", "setting": "ICR mice; i.v., end of study", "result": "no gross pathological alteration"}, {"measurement": "LD50", "setting": "ICR mice; intravenous (tail vein), single dose, Bliss method", "result": 721, "unit": "mg/kg"}, {"measurement": "LD50 at 24 h", "setting": "[2]; read-out: LD50 with 95% confidence level", "result": "685 to 760", "unit": "mg/kg"}, {"measurement": "LD50 at 24 h", "setting": "[2]; intravenous (tail vein), single dose, read-out: LD50", "result": 722, "unit": "mg/kg"}, {"measurement": "inhibition of hKv4.3 current", "setting": "[3]", "result": "no significant inhibition"}, {"measurement": "effect on hERG channels", "setting": "hERG channels", "result": "no such effect"}]}
